Test results reported in US9902702B2, “Spirocycloheptanes as inhibitors of rock” (BRISTOL-MYERS SQUIBB COMPANY, priority 2014, dated 2018).

What follows are compounds tested against ROCK2 (Homo sapiens, UniProt O75116) (assay: ROCK assay: phosphorylation of FITC peptide substrate, LABCHIP 3000 mobility shift). Conditions: 5 μM ATP, 1.5 μM peptide substrate; read-out: ROCK2 Activity (ROCK IC50 range).
Assay type: biochemical
Procedure: The effectiveness of compounds of the present invention as ROCK inhibitors can be determined in a 30 μL assay containing 20 mM HEPES, pH 7.5, 20 mM MgCl2, 0.015% Brij-35, 4 mM DTT, 5 μM ATP and 1.5 μM peptide substrate (FITC-AHA-AKRRRLSSLRA-OH). Compounds were dissolved in DMSO so that the final concentration of DMSO was <2%, and the reaction was initiated with Rho kinase variants. After incubation, the reaction was terminated by the addition of EDTA and the phosphorylated and non-phosphorylated peptides separated using a LABCHIP® 3000 Reader (Caliper Life Sciences). […] Compounds were tested in dose-response format, and the inhibition of kinase activity was calculated at each concentration of compound. The inhibition data were fit using a curve-fitting program to determine the IC50; i.e., the concentration of compound required to inhibit 50% of kinase activity.
Representative Examples were tested in the ROCK assay described above and found having ROCK inhibitory activity.

Chain of ROCK2 (O75116 whole entry, species assumed): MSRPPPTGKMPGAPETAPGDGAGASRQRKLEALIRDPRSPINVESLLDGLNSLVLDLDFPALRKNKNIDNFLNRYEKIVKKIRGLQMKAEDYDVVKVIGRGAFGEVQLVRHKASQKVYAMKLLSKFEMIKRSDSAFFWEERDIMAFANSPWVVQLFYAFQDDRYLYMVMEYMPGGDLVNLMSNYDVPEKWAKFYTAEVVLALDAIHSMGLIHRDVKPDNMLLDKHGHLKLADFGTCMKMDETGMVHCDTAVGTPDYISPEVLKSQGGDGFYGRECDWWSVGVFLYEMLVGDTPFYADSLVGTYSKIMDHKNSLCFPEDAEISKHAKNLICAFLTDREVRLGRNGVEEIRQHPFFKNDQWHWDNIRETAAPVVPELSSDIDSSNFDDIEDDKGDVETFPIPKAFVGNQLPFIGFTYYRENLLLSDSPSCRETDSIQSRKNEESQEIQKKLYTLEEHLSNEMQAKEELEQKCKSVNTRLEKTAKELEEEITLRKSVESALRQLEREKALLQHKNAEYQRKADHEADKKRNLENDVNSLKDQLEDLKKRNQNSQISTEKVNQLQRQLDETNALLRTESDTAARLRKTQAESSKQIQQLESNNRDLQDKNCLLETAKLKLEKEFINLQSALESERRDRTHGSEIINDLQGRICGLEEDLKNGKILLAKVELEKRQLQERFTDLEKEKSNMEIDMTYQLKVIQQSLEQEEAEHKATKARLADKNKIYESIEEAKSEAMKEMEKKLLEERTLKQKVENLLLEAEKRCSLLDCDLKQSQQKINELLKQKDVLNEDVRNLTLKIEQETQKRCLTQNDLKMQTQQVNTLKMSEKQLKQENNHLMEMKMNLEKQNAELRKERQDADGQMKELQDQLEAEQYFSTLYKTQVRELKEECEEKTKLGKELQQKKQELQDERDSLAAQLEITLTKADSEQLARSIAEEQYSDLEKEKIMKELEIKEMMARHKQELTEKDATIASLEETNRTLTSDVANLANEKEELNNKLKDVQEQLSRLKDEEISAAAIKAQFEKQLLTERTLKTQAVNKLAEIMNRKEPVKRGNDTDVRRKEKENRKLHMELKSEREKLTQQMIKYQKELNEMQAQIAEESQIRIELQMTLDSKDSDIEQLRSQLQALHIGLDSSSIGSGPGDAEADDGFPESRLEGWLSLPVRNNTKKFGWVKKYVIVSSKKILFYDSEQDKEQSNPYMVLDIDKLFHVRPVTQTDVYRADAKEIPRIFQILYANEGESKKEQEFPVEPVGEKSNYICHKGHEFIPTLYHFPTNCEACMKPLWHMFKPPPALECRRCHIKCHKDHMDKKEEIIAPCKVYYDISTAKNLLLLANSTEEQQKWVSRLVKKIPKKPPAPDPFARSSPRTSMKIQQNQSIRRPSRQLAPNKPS

IC50 [nM]	Compound
5.1 to 15	Cc1nc(N2CCCC2)sc1C(=O)NC1CC2(C1)CC(c1n[nH]c(=O)c3ccccc13)C2 [Example 35, 4-methyl-N-[(aR)-6-(4-oxo-3,4-dihydrophthalazin-1-yl)spiro[3.3]heptan-2-yl]-2-(pyrrolidin-1-yl)-1,3-thiazole-5-carboxamide]
2.01 to 5	Cc1nc(N2CCC(F)C2)sc1C(=O)NC1CC2(C1)CC(c1n[nH]c(=O)c3ccccc13)C2 [Example 36, 2-[(3S)-3-fluoropyrrolidin-1-yl]-4-methyl-N-[(aR)-6-(4-oxo-3,4-dihydrophthalazin-1-y)spiro[3.3]heptan-2-yl]-1,3-thiazole-5-carboxamide]
5.1 to 15	Cc1nc(N2CCC(F)C2)sc1C(=O)NC1CC2(C1)CC(c1n[nH]c(=O)c3ccccc13)C2 [Example 37, 2-[(3R)-3-fluoropyrrolidin-1-yl]-4-methyl-N-[(aR)-6-(4-oxo-3,4-dihydrophthalazin-1-yl)spiro[3.3]heptan-2-yl]-1,3-thiazole-5-carboxamide]
5.1 to 15	Cc1nc(N2CCC(C#N)C2)sc1C(=O)NC1CC2(C1)CC(c1n[nH]c(=O)c3ccccc13)C2 [Example 38, 2-[(3S)-3-cyanopyrrolidin-1-yl]-4-methyl-N-[(aR)-6-(4-oxo-3,4-dihydrophthalazin-1-yl)spiro[3.3]heptan-2-yl]-1,3-thiazole-5-carboxamide]
5.1 to 15	Cc1nc(N2CCC(C#N)C2)sc1C(=O)NC1CC2(C1)CC(c1n[nH]c(=O)c3ccccc13)C2 [Example 39, 2-[(3R)-3-cyanopyrrolidin-1-yl]-4-methyl-N-[(aR)-6-(4-oxo-3,4-dihydrophthalazin-1-yl)spiro[3.3]heptan-2-yl]-1,3-thiazole-5-carboxamide]
2.01 to 5	Cc1nc(N2CCC3CC32)sc1C(=O)NC1CC2(C1)CC(c1n[nH]c(=O)c3ccccc13)C2 [Example 40, rel-2-[(1S,5R)-2-azabicyclo[3.1.0]hexan-2-yl]-4-methyl-N-[(aR)-6-(4-oxo-3,4-dihydrophthalazin-1-yl)spiro[3.3]heptan-2-yl]-1,3-thiazole-5-carboxamide]
2.01 to 5	Cc1nc(N2CCC(F)(F)C2)sc1C(=O)NC1CC2(C1)CC(c1n[nH]c(=O)c3ccccc13)C2 [Example 41, 2-(3,3-difluoropyrrolidin-1-yl)-4-methyl-N-[(aR)-6-(4-oxo-3,4-dihydrophthalazin-1-yl)spiro[3.3]heptan-2-yl]-1,3-thiazole-5-carboxamide]
15.1 to 100	Cc1nc(NC2CC2)sc1C(=O)NC1CC2(C1)CC(c1n[nH]c(=O)c3ccccc13)C2 [Example 42, 2-(cyclopropylamino)-4-methyl-N-[(aR)-6-(4-oxo-3,4-dihydrophthalazin-1-yl)spiro[3.3]heptan-2-yl]-1,3-thiazole-5-carboxamide]
5.1 to 15	O=c1[nH]nc([C@H]2CC3(C[C@H](Nc4nnc(-c5ccccc5)s4)C3)C2)c2ccccc12 (stereo partly drawn) [Example 43, 4-((aR)-6-((5-Phenyl-1,3,4-thiadiazol-2-yl)amino)spiro[3.3]heptan-2-yl)phthalazin-1(2H)-one(2H)-one]
100 to 2100	O=c1[nH]nc([C@H]2CC3(C[C@H](Nc4ncc(-c5ccccc5)o4)C3)C2)c2ccccc12 (stereo partly drawn) [Example 44, 4-((aR)-6-((5-phenyloxazol-2-yl)amino)spiro[3.3]heptan-2-yl)phthalazin-1(2H)-one(2H)-one]
5.1 to 15	O=c1[nH]nc([C@H]2CC3(C[C@H](Nc4nncc5ccccc45)C3)C2)c2ccccc12 (stereo partly drawn) [Example 45, 4-((aR)-6-(Phthalazin-1-ylamino)spiro[3.3]heptan-2-yl)phthalazin-1(2H)-one(2H)-one]
100 to 2100	O=C(C1CC2(C1)CC(c1n[nH]c(=O)c3ccccc13)C2)N1CCc2ccccc21 (stereo not drawn) [Example 46, 4-(6-(Indoline-1-carbonyl)spiro[3.3]heptan-2-yl)phthalazin-1(2H)-one(2H)-one]
100 to 2100	O=C(C1CC2(C1)CC(c1n[nH]c(=O)c3ccccc13)C2)N1Cc2ccccc2C1 (stereo not drawn) [Example 47, 4-[6-(2,3-dihydro-1H-isoindole-2-carbonyl)spiro[3.3]heptan-2-yl]-1,2-dihydrophthalazin-1-one]
100 to 2100	Cc1nnc(NC(=O)C2CC3(C2)CC(c2n[nH]c(=O)c4ccccc24)C3)s1 (stereo not drawn) [Example 48, N-(5-methyl-1,3,4-thiadiazol-2-yl)-6-(4-oxo-3,4-dihydrophthalazin-1-yl)spiro[3.3]heptane-2-carboxamide]
100 to 2100	Cc1cc(NC(=O)C2CC3(C2)CC(c2n[nH]c(=O)c4ccccc24)C3)no1 (stereo not drawn) [Example 49, N-(5-methyl-1,2-oxazol-3-yl)-6-(4-oxo-3,4-dihydrophthalazin-1-yl)spiro[3.3]heptane-2-carboxamide]
5.1 to 15	[H][C@]1(c2n[nH]c(=O)c3ccccc32)C[C@]2(C[C@@H](NC(=O)N3CCc4ccccc43)C2)C1 (stereo partly drawn) [Example 50, N-((aR)-6-(4-Oxo-3,4-dihydrophthalazin-1-yl)spiro[3.3]heptan-2-yl)indoline-1-carboxamide]
5.1 to 15	O=C(N[C@H]1CC2(C1)C[C@H](c1n[nH]c(=O)c3ccccc31)C2)N1Cc2ccccc2C1 (stereo partly drawn) [Example 51, N-((aR)-6-(4-Oxo-3,4-dihydrophthalazin-1-yl)spiro[3.3]heptan-2-yl)isoindoline-2-carboxamide]
15.1 to 100	O=C(CC1CC2(C1)CC(c1n[nH]c(=O)c3ccccc13)C2)N1CCc2ccccc21 (stereo not drawn) [Example 52, 4-(6-(2-(Indolin-1-yl)-2-oxoethyl)spiro[3.3]heptan-2-yl)phthalazin-1(2H)-one]
2.01 to 5	Cc1sc(N2CC[C@@H](F)C2)nc1C(=O)N[C@H]1CC2(C1)C[C@H](c1n[nH]c(=O)c3ccccc31)C2 (stereo partly drawn) [Example 53, 2-((R)-3-fluoropyrrolidin-1-yl)-5-methyl-N-((aR)-6-(4-oxo-3,4-dihydrophthalazin-1-yl)spiro[3.3]heptan-2-yl)thiazole-4-carboxamide]
0.2 to 2	Cc1sc(N2CCC(F)(F)C2)nc1C(=O)NC1CC2(C1)CC(c1n[nH]c(=O)c3ccccc13)C2 [Example 54, 2-(3,3-difluoropyrrolidin-1-yl)-5-methyl-N-((aR)-6-(4-oxo-3,4-dihydrophthalazin-1-yl)spiro[3.3]heptan-2-yl)thiazole-4-carboxamide]
5.1 to 15	Cc1sc(N2CCC(C#N)C2)nc1C(=O)NC1CC2(C1)CC(c1n[nH]c(=O)c3ccccc13)C2 [Example 55, 2-((S)-3-cyanopyrrolidin-1-yl)-5-methyl-N-((aR)-6-(4-oxo-3,4-dihydrophthalazin-1-yl)spiro[3.3]heptan-2-yl)thiazole-4-carboxamide]
5.1 to 15	Cc1sc(N2CCC(C#N)C2)nc1C(=O)NC1CC2(C1)CC(c1n[nH]c(=O)c3ccccc13)C2 [Example 56, 2-((R)-3-cyanopyrrolidin-1-yl)-5-methyl-N-((aR)-6-(4-oxo-3,4-dihydrophthalazin-1-yl)spiro[3.3]heptan-2-yl)thiazole-4-carboxamide]
5.1 to 15	Cc1sc(NC2CC(F)(F)C2)nc1C(=O)NC1CC2(C1)CC(c1n[nH]c(=O)c3ccccc13)C2 [Example 57, 2-((3,3-difluorocyclobutyl)amino)-5-methyl-N-((aR)-6-(4-oxo-3,4-dihydrophthalazin-1-yl)spiro[3.3]heptan-2-yl)thiazole-4-carboxamide]
2.01 to 5	Cc1sc(N2CCC(F)C2)nc1C(=O)NC1CC2(C1)CC(c1n[nH]c(=O)c3ccccc13)C2 [Example 58, 2-((S)-3-fluoropyrrolidin-1-yl)-5-methyl-N-((aR)-6-(4-oxo-3,4-dihydrophthalazin-1-yl)spiro[3.3]heptan-2-yl)thiazole-4-carboxamide]
5.1 to 15	Cc1sc(N2CCCC2C(F)(F)F)nc1C(=O)NC1CC2(C1)CC(c1n[nH]c(=O)c3ccccc13)C2 [Example 59, 5-methyl-N-((aR)-6-(4-oxo-3,4-dihydrophthalazin-1-yl)spiro[3.3]heptan-2-yl)-2-((S)-2-(trifluoromethyl)pyrrolidin-1-yl)thiazole-4-carboxamide]
15.1 to 100	Cc1sc(N2CCCC2C(F)(F)F)nc1C(=O)NC1CC2(C1)CC(c1n[nH]c(=O)c3ccccc13)C2 [Example 60, 5-methyl-N-((aR)-6-(4-oxo-3,4-dihydrophthalazin-1-yl)spiro[3.3]heptan-2-yl)-2-((R)-2-(trifluoromethyl)pyrrolidin-1-yl)thiazole-4-carboxamide]
2.01 to 5	COc1ccc2c(c1)c(C(=O)NC1CC3(C1)CC(c1n[nH]c(=O)c4ccccc14)C3)nn2CC(C)(C)O [Example 61, 1-(2-hydroxy-2-methylpropyl)-5-methoxy-N-((aR)-6-(4-oxo-3,4-dihydrophthalazin-1-yl)spiro[3.3]heptan-2-yl)-1H-indazole-3-carboxamide]
0.2 to 2	COc1ccc2c(C(=O)NC3CC4(C3)CC(c3n[nH]c(=O)c5ccccc35)C4)nn(CC(C)(C)O)c2c1 [Example 62, 1-(2-hydroxy-2-methylpropyl)-6-methoxy-N-((aR)-6-(4-oxo-3,4-dihydrophthalazin-1-yl)spiro[3.3]heptan-2-yl)-1H-indazole-3-carboxamide]
0.2 to 2	COc1ccc2c(C(=O)NC3CC4(C3)CC(c3n[nH]c(=O)c5ccccc35)C4)cnn2c1 [Example 63, 6-methoxy-N-((aR)-6-(4-oxo-3,4-dihydrophthalazin-1-yl)spiro[3.3]heptan-2-yl)pyrazolo[1,5-a]pyridine-3-carboxamide]
5.1 to 15	COc1ccn2ncc(C(=O)NC3CC4(C3)CC(c3n[nH]c(=O)c5ccccc35)C4)c2c1 [Example 64, 5-methoxy-N-((aR)-6-(4-oxo-3,4-dihydrophthalazin-1-yl)spiro[3.3]heptan-2-yl)pyrazolo[1,5-a]pyridine-3-carboxamide]
